Test results from patent US20150150769A1, “COSMETIC COMPOSITIONS COMPRISING DITERPENOIC ACIDS, E.G. GIBBERELLIC ACIDS” (Cutech S.r.L., priority 2011, published 2015).

Experiments:
[1] = system: Human anagen hair follicles; experiment: Growth (elongation) of cultured isolated human hair follicles; assay type: cell-based
Description: (§1) Human anagen hair follicles were isolated from scalp skin taken from a single donor and transferred for cultivation in sterile 24 well plates using a modified Williams' Medium E. Cultivation took place for nine days, while the experimental treatment of the follicles started 24 hours from the beginning of the cultivation. Hair follicles were selected for the experiments after 18 h of cultivation. Only follicles showing a good vital stage and a growth of not less than 0.2 mm were considered suitable to be maintained in culture. All experimental groups and the control group were prepared by including 12 follicles, plated in 24 well plates at a density of 3 hair follicles (HFs) per well. […] The growth of the hair follicles was studied by performing image analyses on microphotographs. All hair follicles were photographed at day 5 of culture (day 4 of treatment) and then at day 9 of culture (day 8 of treatment).

[2] = system: Human anagen hair follicles; experiment: Histological analysis of hair follicles (anagen/catagen stage, dermopapilla morphology); assay type: cell-based; settings: for Anagen phase / Catagen phase: after 9 days of cultivation
Description: as §1
The experiment according to Examples 1 to 3 was terminated after 9 days of cultivation. Subsequently, the hair follicles were subjected to histological analysis by staining with haematossilin and eosin in order to verify the morphological state of the dermopapilla.

Gibberellic acid [Gibberellin]
change of hair follicle growth in comparison to the control group ([1]; Examples 7-8, 1 μg/ml, P<0.001): −30.1% | change of hair follicle growth in comparison to the control group ([1]; Examples 9-10, 1 μg/ml, P<0.001): −27.7% | change of hair follicle growth in comparison to the control group ([1]; Examples 11-12, 1 μg/ml, P<0.01): −20% | reduction of hair growth in comparison to the control group ([1]; Examples 11-12, depending on the treatment dosage (0.1-1.0 μg/ml)): up to 20%

C=C1C[C@]23C[C@@]1(O)CC[C@H]2[C@@]12C=C[C@H](O)[C@@](C)(C(=O)O1)[C@H]2[C@@H]3C(=O)O [Gibberellin, Gibberellic acid]
inhibition at 1 µg/mL ([1]; Homo sapiens, Examples 1-3, 1 μg/ml, P<0.01, read-out: inhibitory action on hair growth in comparison with the untreated sample): 19% | Growth of hair follicles: Elongation performance, Average ([1]; Table 1, Examples 1-3, 0.01 μg/ml, day 9 of culture): 88.2 ± 7.0 percentage of the control group | Growth of hair follicles: Elongation performance, Average ([1]; Table 1, Examples 1-3, 0.1 μg/ml, day 9 of culture): 85.6 ± 5.4 percentage of the control group | Growth of hair follicles: Elongation performance, Average ([1]; Table 1, Examples 1-3, 1.0 μg/ml, day 9 of culture): 80.6 ± 5.4 percentage of the control group | Growth of hair follicles: Elongation performance, Average ([1]; Table 2, Examples 4-6, 0.01 μg/ml, 9 days of cultivation): 81.4 ± 5.9 percentage of the control group | Growth of hair follicles: Elongation performance, Average ([1]; Table 2, Examples 4-6, 0.1 μg/ml, 9 days of cultivation): 89.8 ± 8.0 percentage of the control group | Growth of hair follicles: Elongation performance, Average ([1]; Table 2, Examples 4-6, 1.0 μg/ml, 9 days of cultivation): 82.7 ± 6.6 percentage of the control group | Growth of hair follicles: Elongation performance, Average ([1]; Table 3, Examples 7-8, 0.1 μg/ml, 9 days of cultivation): 76.6 ± 4.3 percentage of the control group | Growth of hair follicles: Elongation performance, Average ([1]; Table 3, Examples 7-8, 1.0 μg/ml, 9 days of cultivation): 69.9 ± 3.2 percentage of the control group | Growth of hair follicles: Elongation performance, Average ([1]; Table 4, Examples 9-10, 0.1 μg/ml, 9 days of cultivation): 77.7 ± 5.8 percentage of the control group | Growth of hair follicles: Elongation performance, Average ([1]; Table 4, Examples 9-10, 1.0 μg/ml, 9 days of cultivation): 72.3 ± 4.9 percentage of the control group | Growth of hair follicles: Elongation performance, Average ([1]; Table 5, Examples 11-12, 0.1 μg/ml, 9 days of cultivation): 91.3 ± 4.7 percentage of the control group | Growth of hair follicles: Elongation performance, Average ([1]; Table 5, Examples 11-12, 1.0 μg/ml, 9 days of cultivation): 79.9 ± 5.9 percentage of the control group | effect on decline of the hair follicles into the catagen phase ([2]; Examples 13-14, 0.1 and 1 μg/ml, result in words): significantly anticipated the decline into the catagen phase | Anagen phase ([2]; Table 6, Example 13, 0.1 μg/ml): 22.2 | Catagen phase ([2]; Table 6, Example 13, 0.1 μg/ml): 77.8 | Anagen phase ([2]; Table 6, Example 14, 1 μg/ml): 9.1 | Catagen phase ([2]; Table 6, Example 14, 1 μg/ml): 90.9
